From patent US10968231B2, “Substituted cyclyl-acetic acid derivatives for the treatment of metabolic disorders” (TAKEDA PHARMACEUTICAL COMPANY LIMITED, priority 2017, dated 2021)

Molecular target: T1, human GPR40 (Homo sapiens, UniProt O14842)
T1 construct: expressed in transfected cells
Assay: Evaluation of human GPR40 agonist activity with increase in intracellular Ca2+ concentration as an index (FLIPR)
Type: cell-based
Settings: test compound at final concentration of 1 μM; CHO(dhfr−) cells stably expressing human GPR40; 100% = activity of 10 μM of compound of WO 2015/020184 Example 153, 0% = DMSO
Method: Evaluation of Human GPR40 Agonist Activity with Increase in Intracellular Ca^2+ Concentration as an Index
CHO(dhfr−) cells that stably expressed human GPR40 were suspended in MEMα (Wako Pure Chemical Industries, Ltd.) containing 10% dialyzed serum (Thermo Fisher Scientific), 10 mM HEPES (Thermo Fisher Scientific), 100 U/mL penicillin, 100 μg/mL streptomycin (Wako Pure Chemical Industries, Ltd.), and plated on a 384 well black/clear cell culture plate at 10,000 cells/well. After culture overnight in a CO2 incubator at 37° C., the culture supernatant was removed, and loading buffer [Ca^2+ probe attached to Calcium Kit II-iCellux (DOJINDO) was dissolved in assay buffer (20 mM HEPES, 0.1% fatty acid-free BSA (Wako Pure Chemical Industries, Ltd.), 2.5 mM probenecid (DOJINDO)-containing HBSS (Thermo Fisher Scientific))] was added at 30 μL/well. After leaving for 1 hr at room temperature under light shielding, assay buffer containing the test compound at a final concentration of 1 μM was added at 10 μL/well in fluorescence plate reader FLIPR Tetra (Molecular Devices), and the fluorescence amount was successively measured. Human GPR40 agonist activity was calculated using an increase in the intracellular Ca^2+ concentration as an index, wherein the activity of 10 μM of the compound of WO 2015/020184 (Example 153: 3-cyclopropyl-3-(2-((1-(2-((2-fluoro-2-methylpropyl)(4-methylpyridin-2-yl)carbamoyl)-5-methoxyphenyl)piperidin-4-yl)methoxy)pyridin-4-yl)propanoic acid) was 100%, and the activity when DMSO was added instead of the test compound was 0%.

T1 sequence (O14842 whole entry): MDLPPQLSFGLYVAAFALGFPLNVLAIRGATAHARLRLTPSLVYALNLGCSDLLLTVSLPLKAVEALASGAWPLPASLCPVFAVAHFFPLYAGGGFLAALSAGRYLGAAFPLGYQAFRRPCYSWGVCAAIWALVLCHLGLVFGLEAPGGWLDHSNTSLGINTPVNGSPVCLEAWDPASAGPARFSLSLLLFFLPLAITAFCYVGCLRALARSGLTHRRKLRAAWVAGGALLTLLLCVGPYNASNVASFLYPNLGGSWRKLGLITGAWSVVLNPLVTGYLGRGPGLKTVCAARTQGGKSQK

| activity (human GPR40 agonist activity) [%] | SMILES |
| --- | --- |
| 111 | COc1cc(N2CCC(COc3cc4c(cn3)OCCC4CC(=O)O)CC2)c(C2CCN(CC(F)(F)F)CC2)cn1 (single isomer, unassigned) [Example 5, (6-((1-(2-methoxy-5-(1-(2,2,2-trifluoroethyl)piperidin-4-yl)pyridin-4-yl)piperidin-4-yl)methoxy)-3,4-dihydro-2H-pyrano[2,3-c]pyridin-4-yl)acetic acid] |
| 59 | COc1cc(N2CCC(COc3cc4c(cn3)OCCC4CC(=O)O)CC2)c(C2CCN(CC(F)(F)F)CC2)cn1 (single isomer, unassigned) [Example 6, (6-((1-(2-methoxy-5-(1-(2,2,2-trifluoroethyl)piperidin-4-yl)pyridin-4-yl)piperidin-4-yl)methoxy)-3,4-dihydro-2H-pyrano[2,3-c]pyridin-4-yl)acetic acid] |
| 107 | COc1cc(N2CCC(COc3cc4c(cn3)OCCC4CC(=O)O)CC2)c(C2CCN(CC(F)(F)F)CC2)cn1 (single isomer, unassigned) [Example 7, (6-((1-(2-methoxy-5-(1-(2,2,2-trifluoroethyl)piperidin-4-yl)pyridin-4-yl)piperidin-4-yl)methoxy)-3,4-dihydro-2H-pyrano[2,3-c]pyridin-4-yl)acetic acid] |
| 107 | COc1ccc(CCC(F)(F)F)c(N2CCC(COc3cc4c(cn3)OCCC4CC(=O)O)CC2)c1 (stereo not shown) [Example 1, (6-((1-(5-methoxy-2-(3,3,3-trifluoropropyl)phenyl)piperidin-4-yl)methoxy)-3,4-dihydro-2H-pyrano[2,3-c]pyridin-4-yl)acetic acid] |
| 108 | COc1cc(N2CCC(COc3cc4c(cn3)OCCC4CC(=O)O)CC2)c(OCC(F)(F)C(F)(F)F)cn1 (stereo not shown) [Example 2, (6-((1-(2-methoxy-5-(2,2,3,3,3-pentafluoropropoxy)pyridin-4-yl)piperidin-4-yl)methoxy)-3,4-dihydro-2H-pyrano[2,3-c]pyridin-4-yl)acetic acid] |
| 109 | COc1cc(N2CCC(COc3cc4c(cn3)CCC4CC(=O)O)CC2)c(OCC(F)(F)C(F)(F)F)cn1 (stereo not shown) [Example 3, (3-((1-(2-methoxy-5-(2,2,3,3,3-pentafluoropropoxy)pyridin-4-yl)piperidin-4-yl)methoxy)-6,7-dihydro-5H-cyclopenta[c]pyridin-5-yl)acetic acid] |
| 108 | COc1ccc(C2CCN(CC(F)(F)F)CC2)c(N2CCC(COc3cc4c(cn3)CCC4CC(=O)O)CC2)c1 (stereo not shown) [Example 4, (3-((1-(5-methoxy-2-(1-(2,2,2-trifluoroethyl)piperidin-4-yl)phenyl)piperidin-4-yl)methoxy)-6,7-dihydro-5H-cyclopenta[c]pyridin-5-yl)acetic acid] |
| 103 | COc1ccc(CCC(F)(F)F)c(N2CCC(COc3cc4c(cn3)OCCC4CC(=O)O)CC2)c1 (stereo not shown) [Example 8, (6-((1-(5-methoxy-2-(3,3,3-trifluoropropyl)phenyl)piperidin-4-yl)methoxy)-3,4-dihydro-2H-pyrano[2,3-c]pyridin-4-yl)acetic acid] |
| 104 | COc1ccc(C2CCN(CC(F)(F)F)CC2)c(N2CCC(COc3cc4c(cn3)OCCC4CC(=O)O)CC2)c1 (stereo not shown) [Example 9, (6-((1-(5-methoxy-2-(1-(2,2,2-trifluoroethyl)piperidin-4-yl)phenyl)piperidin-4-yl)methoxy)-3,4-dihydro-2H-pyrano[2,3-c]pyridin-4-yl)acetic acid] |
| 105 | COc1ccc(C2CCN(CC(F)(F)F)CC2)c(N2CCC(COc3cc4c(cn3)CCC4CC(=O)O)CC2)c1 (stereo not shown) [Example 10, (3-((1-(5-methoxy-2-(1-(2,2,2-trifluoroethyl)piperidin-4-yl)phenyl)piperidin-4-yl)methoxy)-6,7-dihydro-5H-cyclopenta[c]pyridin-5-yl)acetic acid] |
| 107 | COc1cc(N2CCC(COc3cc4c(cn3)OCCC4CC(=O)O)CC2)c(OCC(F)(F)C(F)(F)F)cn1 (stereo not shown) [Example 11, (6-((1-(2-methoxy-5-(2,2,3,3,3-pentafluoropropoxy)pyridin-4-yl)piperidin-4-yl)methoxy)-3,4-dihydro-2H-pyrano[2,3-c]pyridin-4-yl)acetic acid] |
| 58 | COc1cc(N2CCC(COc3cc4c(cn3)OCCC4CC(=O)O)CC2)c(OCC(F)(F)C(F)(F)F)cn1 (stereo not shown) [Example 17, (6-((1-(2-methoxy-5-(2,2,3,3,3-pentafluoropropoxy)pyridin-4-yl)piperidin-4-yl)methoxy)-3,4-dihydro-2H-pyrano[2,3-c]pyridin-4-yl)acetic acid] |
| 41 | COc1ccc(CCC(F)(F)F)c(N2CCC(COc3cc4c(cn3)OCCC4CC(=O)O)CC2)c1 (stereo not shown) [Example 18, (6-((1-(5-methoxy-2-(3,3,3-trifluoropropyl)phenyl)piperidin-4-yl)methoxy)-3,4-dihydro-2H-pyrano[2,3-c]pyridin-4-yl)acetic acid] |
| 54 | COc1ccc(C2CCN(CC(F)(F)F)CC2)c(N2CCC(COc3cc4c(cn3)OCCC4CC(=O)O)CC2)c1 (stereo not shown) [Example 28, (6-((1-(5-methoxy-2-(1-(2,2,2-trifluoroethyl)piperidin-4-yl)phenyl)piperidin-4-yl)methoxy)-3,4-dihydro-2H-pyrano[2,3-c]pyridin-4-yl)acetic acid] |
| 65 | COc1ccc(C2CCN(CC(F)(F)F)CC2)c(N2CCC(COc3cc4c(cn3)CCC4CC(=O)O)CC2)c1 (stereo not shown) [Example 29, (3-((1-(5-methoxy-2-(1-(2,2,2-trifluoroethyl)piperidin-4-yl)phenyl)piperidin-4-yl)methoxy)-6,7-dihydro-5H-cyclopenta[c]pyridin-5-yl)acetic acid] |
| 110 | COc1ccc(C2CCN(CC(F)(F)F)CC2)c(N2CCC(COc3cc4c(cn3)OCCC4CC(=O)O)CC2)c1 (stereo not shown) [Example 36, (6-((1-(5-methoxy-2-(1-(2,2,2-trifluoroethyl)piperidin-4-yl)phenyl)piperidin-4-yl)methoxy)-3,4-dihydro-2H-pyrano[2,3-c]pyridin-4-yl)acetic acid] |
